Here are results for 10 molecules from PMC8839746, “Discovery and Characterization of a Cryptic Secondary Binding Site in the Molecular Chaperone HSP70” (Molecules, 2022).

≈ marks a conversion by molar mass, not a printed value. Like-named read-outs stand apart in the source and are kept apart here.

One data set concerns the target HSP70. Details: method as in PMID 19256508. As to conditions: cited from earlier work.
A short description of data set [1]: Kinetic solubility in pH 7.4 phosphate buffer by quantitative NMR. Format: physicochemical. The following applies: phosphate-buffered saline with 5% DMSO, aqueous with cosolvent or surfactant or cyclodextrin, kinetic from dmso stock, NMR method. The method, then: Nine microliters of a 10-mM DMSO solution of 1 was pipetted into one well of a 384-deep well plate (Greiner, part-no. 781270). one hundred and seventy-one microliters of aqueous buffer (137-mM NaCl, 2.7-mM KCl and 10-mM phosphate buffer solution (pH 7.4)) were pipetted into the same well and mixed 3 times by pipette to give a 500-µM solution of 1 with 5% DMSO. The plate was centrifuged (1000 rpm for 1 min, Eppendorf 5810C) and then sealed and incubated at room temperature for 20 h without shaking. The plate was centrifuged (1000 rpm for 1 min, Eppendorf 5810R), and 165 µL of the supernatant was transferred to a 3-mm NMR tube (Bruker, Part No. Z112272) using a liquid handler SamplePro Tube SJ S (Bruker, Bilerica, MA, USA)). The concentration of 1 was measured by quantitative ^1H-NMR using a single external standard (200-µM caffeine (Sigma C1778, Merck Life Science UK, Gillingham, UK)) in PBS (pH 7.4) with 1% DMSO-d6). NMR data was collected on a Bruker Avance Neo 600 spectrometer equipped with a 5-mm TCI Cryo-probe. The ^1H spectrum was referenced to the internal deuterated solvent. The operating frequency for ^1H was 600 MHz. […] The quantitative ^1H-NMR spectrum was acquired using a Bruker standard 1D lc1pngppsf2 pulse sequence with 32 scans. […] The quantitative 1H-NMR data analysis was carried out in Mnova 14.1 (Mestrelab Research SL, Santiago de Compostela, Spain).

The target in a further data set is T1, HSC70-NBD (Homo sapiens, UniProt P11142).
T1 construct: made in house
T1 sequence (P11142 2-386 limits assumed): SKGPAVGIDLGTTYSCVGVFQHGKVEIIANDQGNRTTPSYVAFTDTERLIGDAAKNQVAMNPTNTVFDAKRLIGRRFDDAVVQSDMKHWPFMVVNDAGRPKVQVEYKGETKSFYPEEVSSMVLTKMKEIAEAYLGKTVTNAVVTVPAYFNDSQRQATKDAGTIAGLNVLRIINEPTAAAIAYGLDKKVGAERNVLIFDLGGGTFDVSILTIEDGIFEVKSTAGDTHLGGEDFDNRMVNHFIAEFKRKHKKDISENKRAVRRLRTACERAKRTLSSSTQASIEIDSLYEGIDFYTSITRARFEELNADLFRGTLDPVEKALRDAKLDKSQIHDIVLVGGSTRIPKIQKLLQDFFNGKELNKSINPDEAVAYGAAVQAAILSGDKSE
Put plainly: SPR binding to wild-type HSC70-NBD. The method, then: (§1) The HSC70-NBD variants used in SPR were produced and purified as previously described. All surface plasmon resonance (SPR) experiments were carried out on a Biacore T100 enhanced to T200 sensitivity (GE Life Sciences, Amersham, UK), and amine coupling chemistry was used to immobilize the proteins on a research grade CM5 sensor chip. The running buffer was phosphate-buffered saline (10-mM NaHPO4-NaH2PO4, pH 7.4, 2.7-mM KCl and 137-mM NaCl), and the chip’s surface was activated for 10 min using a 1:1 mixture of 100-mM N-hydroxysuccinimide and 400-mM 1-ethyl-3-(3-dimethylaminopropyl)-carbodiimide. Wild-type HSC70-NBD and the S275W mutant proteins were injected for 10 min at a concentration of 2 μM in a 10-mM sodium acetate buffer, pH 5.0 with 100-μM ADP as protection for the active site lysines. Finally, the surface was blocked via an injection of 1 M ethanolamine, pH 8.5 for 7 min. The flow rate was maintained at 10 μL/min for all the above procedures. On average, ~12,000 response units (RU) of the wild-type and the mutant proteins were immobilized on the chip. Flow cell one was left unmodified as the reference surface. Following protein immobilization, the running buffer was changed to phosphate-buffered saline containing 0.05% Tween20 (v/v) and 5% DMSO.
(§2) To determine binding constants (KD) for the compounds, all liquid handling was carried out using an ECHO 550 acoustic liquid dispenser (Labcyte, Dublin, Ireland), and compounds were added to 384-well polypropylene V-bottomed plates (Greiner, Stonehouse, UK), which were used as sample plates for the SPR experiments. Fresh 100-mM DMSO stocks of each compound were prepared and used to generate eight-point concentration responses ranging from 25 μM to 1000 μM or from 6.25 μM to 500 μM. For adenosine, the concentration range was 50 μM–2000 μM from a 200-mM stock in DMSO, and for VER155008, a stock solution of 0.25 mM in DMSO was prepared with a concentration range of 0.0625–2.5 μM. The buffer mix was made compatible with the Biacore running buffer, and the experiments were performed at a flow rate of 30 μL/min, a sample injection time of 60 s and a dissociation time of 200 s. The CM5 surface was not regenerated between sample injections. Binding constants (KD) were calculated from the DMSO-corrected and background-normalized binding curves generated from the sensorgrams under equilibrium conditions using the 1:1 binding model in Biacore software version 2 (GE Life Sciences, Amersham, UK).

Data set [2] in a line: Aggregation check in LO-NMR experiments. The class given is physicochemical. The following applies: tested concentration 200 µM. The method, then: (§3) To confirm the binding of compounds to HSP72-NBD, a series of CPMG and WaterLOGSY experiments were performed. Compounds were assayed at 200 μM in the presence or absence of 10-μM HSP72-NBD. […] of ATP were also included in the competition experiments. The total assay volume was 200 μL, and the experiments were performed in 3-mm NMR tubes. The buffer was 25-mM Tris, pH 7.5, 50-mM NaCl, 10% D2O and 100 μM of DTT in deionized water. NMR experiments were conducted at a ^1H frequency of 600 MHz using a Bruker Avance 600 spectrometer (Bruker, Bilerica, MA, USA) equipped with a 5-mm TCI Cryo-probe. All data were acquired and processed using Topspin (Bruker, Bilerica, MA, USA) and MNova (Mestrelab Research SL, Santiago de Compostela, Spain). The relaxation-edited 1H-NMR spectrum was acquired at 298 K using the CPMG sequence with a spin-lock time of 600 ms. The water signal was suppressed using pre-saturation during the relaxation delay (2 s) and by using the Watergate sequence subsequent to the CPMG sequence. For each spectrum, 64 transients were acquired.

Data set [3] concerns T2, HSP72-NBD.
T2 construct: GST (glutathione-S-transferase), PreScission site (N, cleaved yes); made in house; host or cells: BL21-AI E. coli
Put plainly: waterLOGSY ligand-observed NMR binding. Details: species or system human. The following applies: ligand 200 μM, HSP72-NBD 10 μM. The method, then:
as §3

The test system of data set [4] is T2, HSP72-NBD. Put plainly: CPMG relaxation-edited ligand-observed 1H NMR binding and ATP competition. Details: species or system human. The method, then:
as §3

In data set [5] the target is T3, S275W HSC70-NBD (Homo sapiens, UniProt P11142, S275W).
T3 construct: made in house
T3 sequence (P11142 2-386 S275W limits assumed): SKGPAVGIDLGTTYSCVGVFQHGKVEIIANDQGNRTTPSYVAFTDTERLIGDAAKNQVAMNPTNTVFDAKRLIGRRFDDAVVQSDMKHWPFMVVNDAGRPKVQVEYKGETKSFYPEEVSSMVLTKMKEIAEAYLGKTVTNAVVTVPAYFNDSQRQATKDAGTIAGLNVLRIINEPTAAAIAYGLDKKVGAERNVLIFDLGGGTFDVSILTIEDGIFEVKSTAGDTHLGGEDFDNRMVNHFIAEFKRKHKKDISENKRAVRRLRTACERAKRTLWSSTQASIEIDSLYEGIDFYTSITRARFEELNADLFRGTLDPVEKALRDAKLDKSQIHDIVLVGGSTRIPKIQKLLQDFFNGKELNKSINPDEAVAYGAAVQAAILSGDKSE
In words: SPR binding to S275W mutant HSC70-NBD. On the procedure:
as §1, §2
In general terms: In SPR one partner is held on a chip, and binding of the other changes the refractive index at the surface.

Data set [6] has as its target T3, S275W HSC70-NBD. Set-up: method as in PMID 27708405. The following applies: S275W mutation; cited from earlier work.
Where [7] appears, read: n = 2 determinations unless marked single, read-out: HSC70-NBD S275W SPR KD.
Where [8] appears, read: mean (±SD), n = 3 unless marked n = 2, read-out: HSC70-NBD SPR KD.

`Nc1ncnc2c1ncn2[C@@H]1O[C@H](COP(=O)(O)OP(=O)(O)O)[C@@H](O)[C@H]1O` [ADP]: the Kd (usually the constant that tells how readily two partners part at equilibrium) at HSP70 was 0.5 µM.

For the molecule `NC(=O)N1CCN(c2nc(-c3ccccc3)cs2)CC1` [Compound 1, 4-(4-Phenylthiazol-2-yl)piperazine-1-carboxamide], the melting point (as a rule, the temperature, or range, at which the solid turns liquid) is 131 °C (dec.). Moreover, the kinetic solubility – broadly, solubility judged after dilution from a stock solution rather than from solid – at 20 h in data set [1] amounted to 291 µM (≈ 83.9 µg/mL). For the same molecule, the “SPR binding behaviour (Langmuir isotherm)” value on HSC70-NBD (concentration-response SPR, HSC70-NBD) was “non-saturating behavior”. Also, in [2], the “Aggregation in LO-NMR experiments” value is given as “did not show aggregation”. In addition, the “waterLOGSY NOE sign inversion on addition of HSP72-NBD” value in the data set on HSP72-NBD [3] is recorded as “binding to the protein”. Moreover, the “Reduction in 1H NMR peak intensity relative to 1 alone, Peak a” value in the data set on HSP72-NBD [4] (1 (200 μM) + HSP72-NBD (10 μM), thiazole C5 proton) is reported as 58%. In addition, in the data set on HSP72-NBD [4] (1 + HSP72-NBD), the “Reduction in 1H NMR peak intensity relative to 1 alone, Peak b” value came out at 7%; the “Reduction in 1H NMR peak intensity relative to 1 alone, Peak c” value is listed as 14%; the “Reduction in 1H NMR peak intensity relative to 1 alone, Peak d” value worked out at 13%. For the same molecule, in the data set with HSP72-NBD [4] (1 + HSP72-NBD + ATP), the “Reduction in 1H NMR peak intensity relative to 1 alone, Peak a” value came to 8%; the “Reduction in 1H NMR peak intensity relative to 1 alone, Peak b” value is on record as 12%; the “Reduction in 1H NMR peak intensity relative to 1 alone, Peak c” value was 2%; the “Reduction in 1H NMR peak intensity relative to 1 alone, Peak d” value was 2%.

Regarding `NC(=O)N1CCN(c2nc(-c3ccc(C#CCN4CCOCC4)cc3)cs2)CC1` [Compound 3, 4-[4-[4-(3-Morpholinoprop-1-ynyl)phenyl]thiazol-2-yl]piperazine-1-carboxamide], the dissociation constant Kd on S275W HSC70-NBD [5] (SPR, single determination, read-out: KD S275W HSC70) was 352 µM; on HSC70-NBD (SPR, WT HSC70-NBD, single determination, read-out: KD HSC70-NBD) it was 388 µM. At HSC70-NBD (calculated for binding to WT HSC70-NBD), the Ligand Efficiency was 0.16 kcal/mol per heavy atom. Also, the “Change in NMR signal intensity for 3, Peak a” value was 41% in the data set on HSP72-NBD [4] (3 + HSP72-NBD) and 5% in the data set on HSP72-NBD [4] (3 + HSP72-NBD + ATP). In addition, the “Change in NMR signal intensity for 3, Peak b” value in the data set on HSP72-NBD [4] (3 + HSP72-NBD) is on record as 36%; in the data set with HSP72-NBD [4] (3 + HSP72-NBD + ATP), 22%. Moreover, the “Change in NMR signal intensity for 3, Peak c” value was 31% in the data set on HSP72-NBD [4] (3 + HSP72-NBD) and 7% in the data set with HSP72-NBD [4] (3 + HSP72-NBD + ATP).

Consider `CC(C)c1csc(CCNC(=O)c2cccc(-c3cncc(O)n3)c2)n1` [Compound 4], for which the figures for the Kd on S275W HSC70-NBD [5] (setting [7]) and on HSC70-NBD (setting [8]) were 385 µM and 406 µM, respectively. On HSC70-NBD (vHTS hits, HSC70-NBD), this molecule showed a Ligand Efficiency of 0.18 kcal/mol per heavy atom.

Take `CC(C)(O)C#Cc1cccc(C(=O)NCc2ccc(-n3cncn3)cc2)c1` [Compound 5]: the figures for the dissociation constant (Kd) at S275W HSC70-NBD [5] (setting [7]) and on HSC70-NBD (setting [8]) were 176 µM and 295 µM, respectively. On HSC70-NBD (vHTS hits, HSC70-NBD), this molecule had a Ligand Efficiency of 0.19 kcal/mol per heavy atom.

For the molecule `c1ccc(-c2ccc(Cn3nnnc3N3CCCC(c4ncc[nH]4)C3)cc2)cc1` (stereo not shown) [Compound 6], the Kd at S275W HSC70-NBD [5] (setting [7]) is 12 µM; on HSC70-NBD (setting [8]) it was 13 µM. Besides, the Ligand Efficiency on HSC70-NBD (vHTS hits, HSC70-NBD) amounted to 0.24 kcal/mol per heavy atom.

For the molecule `CNc1nc(C)cc(-c2cccc(C(=O)NCCc3ccc(C)o3)c2)n1` [Compound 7], the Kd on S275W HSC70-NBD [5] (setting [7]) was determined as 159 µM; at HSC70-NBD (setting [8]), 134 µM. For the same molecule, the Ligand Efficiency at HSC70-NBD (vHTS hits, HSC70-NBD) worked out at 0.21 kcal/mol per heavy atom.

Consider `COc1cccc(-c2cc(CNC(=O)c3c(C)oc4c3C(=O)CCC4)on2)c1` [Compound 8], for which the Kd on S275W HSC70-NBD [5] (setting [7]) was found to be 86 µM; on HSC70-NBD (setting [8]), 99 µM. The molecule also showed a Ligand Efficiency on HSC70-NBD (vHTS hits, HSC70-NBD) of 0.2 kcal/mol per heavy atom.

On to `N#Cc1ccc(COC[C@H]2O[C@@H](n3c(NCc4ccc(Cl)c(Cl)c4)nc4c(N)ncnc43)[C@H](O)[C@@H]2O)cc1` [VER-155008], for which the Kd at HSP70 is 0.5 µM.

`Nc1ncnc2c1ncn2[C@@H]1O[C@H](CO)[C@@H](O)[C@H]1O` [adenosine]: the “Binding of adenosine to S275W mutant by SPR” value at S275W HSC70-NBD [6] is “abolished”.
